One assay relates to blood/brain barrier. Conditions: including disruption of the blood/brain barrier; cited from earlier work.
For assay [1] the following is noted: in vitro; cited from earlier work.
For assay [2], the system named is rodent brain contusion model. Briefly: Rodent brain contusion model. As to conditions: given 1 hour after the insult. Type of assay: in vivo. From the text:
MBG is elevated in other syndromes such as preeclampsia and traumatic brain injury. It has been shown that the administration of the antagonist of MBG, resibufagenin (RBG), is therapeutically effective. […] RBG antagonizes MBG activity and may be an effective treatment for hypertension, ARDS, traumatic brain injury, and preeclampsia. Certain embodiments are directed to treating a patient having elevated levels of MBG by administering an MBG antagonist or anti-MBG agent. In certain aspects the anti-MBG agent is resibufagenin (RBG).

For assay [3], the system named is traumatic brain injured animals. Briefly: Urinary MBG excretion in sham and traumatic brain injured animals. Type of assay: in vivo. From the text: There are estimated to be between 300,000 to 350,000 veterans of the Middle East conflicts who currently suffer from PTSD related to wartime service. However, there are no proven methods to diagnose and stage the results of both physical and psychological trauma leading to PTSD, nor are there successful preventative or treatment methods. The interest in these military-associated problems has been accelerated by their potential application also to concussion in civilian life, especially to amateur, collegiate, and professional sports. Thus far, no solution has been enunciated nor has been proven (Meier and Ivory, Jul. 3, 2015, The New York Times). […] 114. […] It has been determined that a circulating cardiac glycoside (or “cardiotonic steroid”) called marinobufagenin (MBG) (FIG. 1), acts as both an indicator and initiator of the inflammatory process involved in TBI (FIG. 1) (Shapiro et al., The American Society for Clinical Pharmacology and Therapeutics, Dallas, Tex., Mar. 2-5, 2011. ASCPT Annual Meeting Program Booklet, p. 78; Puschett et al., Medical Research Archives 2015, ISSN 2375-1924; Oliver et al., J Experimental Neuroscience 2015, 9:67-72). […]

Assay [4] relates to preeclampsia in animal models. Conditions: cited from earlier work.
The subject of assay [5] is GFAP-labeled astrocytes in cortex after impact acceleration injury. Kind of assay: GFAP immuno-fluorescence of brain after impact acceleration injury (IAI). Type of assay: in vivo. Conditions: RBG at 1 hour after IAI. The procedure: FIGS. 2A-2C. Micrographs of GFAP (glial fibrillary acidic protein) immuno-fluorescence. GFAP antibody labels the intermediate filaments of most astrocytes in the brain. In the sham animals (FIG. 2A), a normal distribution of GFAP-labeled astrocytes is seen. At 24 hours after an impact acceleration injury (IAI; FIG. 2B), a noticeable scar is observed (arrows) in layers 2 and 3 of the cortex. There is also a patchy loss of GFAP-labeled astrocytes throughout cortex and the vasculature (arrowheads) appears damaged. The loss of GFAP immunoreactivity and the appearance of astrocyte hypertrophy are indicative of a neuroinflammatory response to injury. […] The RBG treatment also reduces the decrease in GFAP immunoreactivity and a greater proportion of GFAP-labeled astrocytes have a normal, rather than hypertrophied appearance.

As for `C[C@]12CC[C@H](O)C[C@@]1(O)CC[C@@H]1[C@@H]2CC[C@]2(C)[C@@H](c3ccc(=O)oc3)C[C@H]3O[C@]132` [MBG, marinobufagenin], the Vascular leak entry with blood/brain barrier is listed as “cause vascular leak”. Further, the Vasoconstrictor action result in assay [1] is “acts in vitro as a vasoconstrictor”.
With `C[C@]12CC[C@H](O)C[C@H]1CC[C@@H]1[C@@H]2CC[C@]2(C)[C@@H](c3ccc(=O)oc3)C[C@H]3O[C@]132` [RBG, resibufogenin], the Tissue injury entry in assay [2] was “amelioration of tissue injury”. Moreover, the “Urinary MBG excretion” value in assay [3] (TBI + RBG group, N = 10, sham 592.8 ± 79.3, TBI 1340.9 ± 308.5, P TBI vs. TBI + RBG = 0.02) was found to be 475.3 ± 56.1. In assay [3] (animal model of TBI (FIG. 2, Table 1)), the “Antagonism of the effects of MBG” value is on record as “antagonizes the effects of MBG”. Moreover, the Preeclampsia entry in assay [4] is reported as “prevents preeclampsia”. In addition, the Glial scar result in assay [5] (IAI+RBG animals) is “A glial scar was not observed”. Further, the “Alterations after IAI (glial scar, loss of GFAP immunoreactivity, astrocyte hypertrophy)” value in assay [5] (micrographs at 24 hours after IAI) is “most of these alterations are ameliorated”.
